In publication PMC7279231 (International Journal of Molecular Sciences, 2020):
Where two headings read alike, the source gives them in different places.

Tests used:
Balb/c 3T3 fibroblasts [1] = test: LDH leakage assay (cellular membrane integrity), Balb/c 3T3; assay type: cell-based, murine
Protocol: (§1) The human hepatoma cell line (HepG2) was purchased from the American Type Culture Collection (ATCC HB-8065). These cells were cultured in Minimum Essential Medium Eagle (MEME) (ATCC). The murine fibroblast cell line (Balb/c 3T3 clone A31) was purchased from the American Type Culture Collection (ATCC CCL-163), and the cells were cultured in Dulbecco’s Modified Eagle’s Medium (DMEM) (ATCC). The media were supplemented with 10% BCS (Balb/c 3T3), 10% FBS (HepG2), 1% L-glutamine, and 1% antibiotic solution. The cells were maintained in 75-cm^2 cell culture flasks (NUNC, Roskilde, Denmark) in a humidified incubator, NuAire (Plymouth, MN, USA) at 37 °C and 5% CO2. The medium was refreshed every two days and the cells were trypsinized by 0.25% trypsin–0.02% EDTA after reaching 70–80% confluence. Then, cell suspensions at a density of 2 × 10^5 cells/mL (HepG2) and 5 × 10^4 cells/mL (Balb/c 3T3) were transferred to 96-well plates (100 μL/well) and incubated for 24 h before the exposure to the studied compounds.
(§2) As a control, cultured cells were grown in the absence of the studied compounds. Each concentration was tested in six replicates in three independent experiments. Cytotoxicity was assessed after 72 h of cell exposure to the compounds in darkness. The medium was not changed during the incubation time.
(§3) LDH leakage assay. The integrity of the plasma membrane was assessed through the test of lactate dehydrogenase (LDH) release, which was monitored using the commercially available Cytotoxicity Detection Kit (LDH) (Roche Diagnostics, Warsaw, Poland). The medium (100 μL/well) without cells was transferred into the corresponding wells of an optically clear 96-well flat-bottom microplate, and 100 μL of reaction mixture was added to each well. Then, the plates were incubated for 30 min at room temperature in darkness. After that time, 50 μL/well of 1 M HCl was added to stop the reaction. The absorbance was measured at 492 nm in a microplate reader (Synergy HTX multi-mode reader (BioTek® Instruments Inc., Winooski, VT, USA)) using a blank as a reference.
(§4) The study was performed in three independent experiments. […] Assessment of the cytotoxicity data used a one-way analysis of variance (ANOVA) followed by Dunnett’s post-hoc test, which was applied to determine significance relative to the negative control. The cytotoxicity concentration (IC20 and IC50) necessary for 20% and 50% inhibition of cell viability, respectively, by the drug was calculated using GraphPad Prism 5.0. Statistical comparisons among IC50 values were performed by the analysis of variance (ANOVA) followed by the Tukey test, and differences were considered statistically significant at p ≤ 0.05.

Balb/c 3T3 fibroblasts [2] = test: TPC assay (total protein content), Balb/c 3T3; assay type: cell-based, murine
Protocol: as §1, §2
(§5) TPC assay. The assay was based upon staining total cellular protein (proliferation). After the incubation, the medium containing drug was removed and 100 μL of Coomassie brilliant blue R-250 dye was added to each well. The plate was shaken for 10 min. Then, the stain was removed and the cells were rinsed twice with 100 μL of washing solution (glacial acetic acid/ethanol/water, 5:10:85, v:v:v). After that, 100 μL of the desorbing solution (1 M potassium acetate) was added, and plates were shaken again for 10 min. The absorbance was measured at 595 nm in a microplate reader (Synergy HTX multi-mode reader (BioTek® Instruments Inc., Winooski, VT, USA)) using a blank as a reference. Cytotoxicity was expressed as a percentage of the negative control (0.1% DMSO).
as §4

Balb/c 3T3 fibroblasts [3] = test: MTT assay (mitochondrial activity), Balb/c 3T3; assay type: cell-based, murine
Protocol: as §1, §2
(§6) MTT assay. The metabolic activity of living cells was assessed by the measurement of the activity of dehydrogenases. After incubation of the cells with the study compound, 10 μL of the MTT solution (5 mg/mL in phosphate buffered saline (PBS)) was added to each well of the 96-well plate and incubated. After 3 h, the MTT solution was removed, and intracellular formazan crystals were dissolved in 100 μL DMSO. The plate was shaken for 15 min at room temperature and transferred to a microplate reader (Synergy HTX multi-mode reader (BioTek® Instruments Inc., Winooski, VT, USA)) to measure the absorbance at 570 nm, using a blank as a reference. Cytotoxicity was expressed as a percentage of the negative control (0.1% DMSO).
as §4

Balb/c 3T3 fibroblasts [4] = test: NRU assay (lysosomal activity), Balb/c 3T3; assay type: cell-based, murine
Protocol: as §1, §2
(§7) NRU assay. This method is based on staining living cells with neutral red which readily diffuses through the plasma membrane and accumulates in lysosomes. After the incubation, the medium containing the drug was removed, and the cells were washed with PBS. Then, 100 μL/well of NR solution (50 μg/mL) was added for 3 h. After this time, the cells were washed with PBS. The dye from viable cells was released by extraction with a mixture of acetic acid, ethanol, and water (1:50:49, v:v:v). After 10 min of shaking, the absorbance of the dissolved NR was measured using a Synergy HTX multi-mode reader (BioTek® Instruments Inc., Winooski, VT, USA) at 540 nm using a blank as a reference. Cytotoxicity was expressed as a percentage of the negative control (0.1% DMSO).
as §4

HepG2 cells [5] = test: MTT assay (mitochondrial activity), HepG2; assay type: cell-based, human
Protocol: as §1, §2, §6, §4

HepG2 cells [6] = test: TPC assay (total protein content), HepG2; assay type: cell-based, human
Protocol: as §1, §2, §5, §4

HepG2 cells [7] = test: NRU assay (lysosomal activity), HepG2; assay type: cell-based, human
Protocol: as §1, §2, §7, §4

HepG2 cells [8] = test: LDH leakage assay (cellular membrane integrity), HepG2; assay type: cell-based, human
Protocol: as §1, §2
as §3, with “reference. […]” for “reference.”

[9] = test system: human cancer cells (breast, bladder, colorectal cancer cell lines, acute myelogenous leukemia, osteosarcoma cells); design: method as in PMID 26286663; conditions: cited from earlier work
[10] = cited from earlier work
Balb/c 3T3 fibroblasts [11] = test: Cytotoxicity over the MTT, NRU, TPC and LDH assays, Balb/c 3T3; assay type: cell-based, murine; conditions: Balb/c 3T3, up to 1 μM, Figure S5
Protocol: as §1, with “The medium was refreshed every two days and the cells were trypsinized by 0.25% trypsin–0.02% EDTA after reaching 70–80% confluence. Then, cell suspensions at a density of 2 × 10^5 cells/mL (HepG2) and 5 × 10^4 cells/mL (Balb/c 3T3) were transferred to 96-well plates (100 μL/well) and incubated for 24 h before the exposure to the studied compounds.” left out
(§8) As a control, cultured cells were grown in the absence of the studied compounds. […] Cytotoxicity was assessed after 72 h of cell exposure to the compounds in darkness. […]
(§9) MTT assay. The metabolic activity of living cells was assessed by the measurement of the activity of dehydrogenases. […] The plate was shaken for 15 min at room temperature and transferred to a microplate reader (Synergy HTX multi-mode reader (BioTek® Instruments Inc., Winooski, VT, USA)) to measure the absorbance at 570 nm, using a blank as a reference. Cytotoxicity was expressed as a percentage of the negative control (0.1% DMSO).
(§10) NRU assay. […] Cytotoxicity was expressed as a percentage of the negative control (0.1% DMSO). […]

HepG2 cells [12] = test: Cytotoxicity over the MTT, NRU, TPC and LDH assays, HepG2; assay type: cell-based, human; conditions: HepG2, up to 1 μM, Figure S5
Protocol: as §1, with “The medium was refreshed every two days and the cells were trypsinized by 0.25% trypsin–0.02% EDTA after reaching 70–80% confluence. Then, cell suspensions at a density of 2 × 10^5 cells/mL (HepG2) and 5 × 10^4 cells/mL (Balb/c 3T3) were transferred to 96-well plates (100 μL/well) and incubated for 24 h before the exposure to the studied compounds.” left out
as §8, §9, §10

[13] = Balb/c 3T3, LDH, 72 h exposure, mean (n = 3) ± SD
[14] = Balb/c 3T3, TPC, 72 h exposure, mean (n = 3) ± SD
[15] = Balb/c 3T3, MTT, 72 h exposure, mean (n = 3) ± SD
[16] = Balb/c 3T3, NRU, 72 h exposure, mean (n = 3) ± SD
[17] = HepG2, MTT, 72 h exposure, mean (n = 3) ± SD
[18] = HepG2, TPC, 72 h exposure, mean (n = 3) ± SD
[19] = HepG2, NRU, 72 h exposure, mean (n = 3) ± SD

O=[N+]([O-])[O-].[Ag+] [AgNO3, Silver nitrate]
> 1000 nM: IC20 (Balb/c 3T3 fibroblasts [1]) | IC50 (Balb/c 3T3 fibroblasts [1]) | IC20 (Balb/c 3T3 fibroblasts [2]) | IC50 (Balb/c 3T3 fibroblasts [2]) | IC20 (Balb/c 3T3 fibroblasts [3]) | IC50 (Balb/c 3T3 fibroblasts [3]) | IC20 (Balb/c 3T3 fibroblasts [4]) | IC50 (Balb/c 3T3 fibroblasts [4]) | IC20 (HepG2 cells [5]) | IC50 (HepG2 cells [5]) | IC20 (HepG2 cells [6]) | IC50 (HepG2 cells [6]) | IC20 (HepG2 cells [7]) | IC50 (HepG2 cells [7]) | IC20 (HepG2 cells [8]) | IC50 (HepG2 cells [8])

N.N.[Cl][Pt][Cl] [Cisplatin, cis-diamminedichloroplatinum(II)]
> 1000 nM: IC20 (Balb/c 3T3 fibroblasts [1]; [13]) | IC50 (Balb/c 3T3 fibroblasts [1]; [13]) | IC20 (Balb/c 3T3 fibroblasts [2]; [14]) | IC50 (Balb/c 3T3 fibroblasts [2]; [14]) | IC20 (Balb/c 3T3 fibroblasts [3]; [15]) | IC50 (Balb/c 3T3 fibroblasts [3]; [15]) | IC20 (Balb/c 3T3 fibroblasts [4]; [16]) | IC50 (Balb/c 3T3 fibroblasts [4]; [16]) | IC50 (HepG2 cells [5]; [17]) | IC50 (HepG2 cells [6]; [18]) | IC50 (HepG2 cells [7]; [19])
10 ± 1 nM: IC50 (HepG2 cells [8]; HepG2, LDH, 72 h exposure, mean (n = 3) ± SD)
< 0.1 nM: IC20 (HepG2 cells [5]; [17]) | IC20 (HepG2 cells [6]; [18]) | IC20 (HepG2 cells [7]; [19])

Clc1ccc(COC(Cn2ccnc2)c2ccc(Cl)cc2Cl)c(Cl)c1 (stereo not shown) [Miconazole, 1-[2-(2,4-dichlorobenzyloxy)-2-(2,4-dichlorophenyl)ethyl]-1H-imidazole]
soluble: solubility ([10]; ethanol)
practically insoluble: solubility ([10]; water)
≤ 10 µM: concentration inhibiting the proliferation of human cancer cells [9]
hardly soluble: solubility ([10]; methanol)
not toxic: toxicity to the cell line (in words) (Balb/c 3T3 fibroblasts [11]) | toxicity to the cell line (in words) (HepG2 cells [12])
